From ChEMBL document CHEMBL1201862, “PubChem BioAssay data set” (2004)
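Step 1: Grow cells in 96-well plates. Step 2: Expose to compound for 48 hours at 5 concentrations. Step 3: Interpolate endpoints linearly; if unreached, use highest concentration. The concentration for 50% growth inhibition is given as GI50.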 Calls of active or inactive are those of the source. Cut-off read from the data, not from the text of the source: active = GI50 up to about 1.1 µM and inactive = higher.

Experiments:
Assay in all cases: NCI tumour cell line growth inhibition, 48 h
EKVX = system: EKVX
BT-549 = system: BT-549
MOLT-4 = system: MOLT-4
SW-620 = system: SW-620
PC-3 = system: PC-3
HOP-62 = system: HOP-62
NCI-H226 = system: NCI-H226
COLO 205 = system: COLO 205
HT-29 = system: HT-29
SNB-75 = system: SNB-75
NCI-H522 = system: NCI-H522
SF-539 = system: SF-539
UACC-62 = system: UACC-62
ACHN = system: ACHN
U-251 = system: U-251
CAKI-1 = system: CAKI-1
DU-145 = system: DU-145
NCI-H460 = system: NCI-H460
Hs-578T = system: Hs-578T
OVCAR-8 = system: OVCAR-8
LOX IMVI = system: LOX IMVI
IGROV-1 = system: IGROV-1
SK-OV-3 = system: SK-OV-3
HCC 2998 = system: HCC 2998
SF-295 = system: SF-295
HCT-116 = system: HCT-116
Malme-3M = system: Malme-3M
HL-60 = system: HL-60
NCI/ADR-RES = system: NCI/ADR-RES
K562 = system: K562
MDA-MB-435 = system: MDA-MB-435
SNB-19 = system: SNB-19
A549 = system: A549
NCI-H23 = system: NCI-H23
MCF7 = system: MCF7
UACC-257 = system: UACC-257
RXF 393 = system: RXF 393
SN12C = system: SN12C
OVCAR-4 = system: OVCAR-4
MDA-MB-231 = system: MDA-MB-231
OVCAR-5 = system: OVCAR-5
CCRF-CEM = system: CCRF-CEM
SK-MEL-28 = system: SK-MEL-28
HCT-15 = system: HCT-15
SK-MEL-2 = system: SK-MEL-2
MDA-N = system: MDA-N
RPMI-8226 = system: RPMI-8226
UO-31 = system: UO-31
SR = system: SR
OVCAR-3 = system: OVCAR-3
T47D = system: T47D
SK-MEL-5 = system: SK-MEL-5
TK-10 = system: TK-10
SF-268 = system: SF-268
A498 = system: A498
M14 = system: M14
786-0 = system: 786-0
KM12 = system: KM12
HOP-92 = system: HOP-92

COC(=O)[C@@H]1C=C[C@H](OC2OC(COC(C)=O)C(OC(C)=O)C(OC(C)=O)C2OC(C)=O)n2c(=O)n(-c3ccccc3)c(=O)n21 (some centres not stated)
GI50 (EKVX): 5.9 µM (inactive) | GI50 (BT-549): 2.29 µM (inactive) | GI50 (MOLT-4): 2.13 µM (inactive) | GI50 (SW-620): 1.79 µM (inactive) | GI50 (PC-3): 2.77 µM (inactive) | GI50 (HOP-62): 14.5 µM (inactive) | GI50 (NCI-H226): 12.2 µM (inactive) | GI50 (COLO 205): 1.85 µM (inactive) | GI50 (HT-29): 1.88 µM (inactive) | GI50 (SNB-75): 4.06 µM (inactive) | GI50 (NCI-H522): 0.507 µM (active) | GI50 (SF-539): 2.74 µM (inactive) | GI50 (UACC-62): 3.1 µM (inactive) | GI50 (ACHN): 1.72 µM (inactive) | GI50 (U-251): 2.8 µM (inactive) | GI50 (CAKI-1): 1.2 µM (inactive) | GI50 (DU-145): 4.75 µM (inactive) | GI50 (NCI-H460): 14 µM (inactive) | GI50 (Hs-578T): 17.3 µM (inactive) | GI50 (OVCAR-8): 2.55 µM (inactive) | GI50 (LOX IMVI): 1.56 µM (inactive) | GI50 (IGROV-1): 3.87 µM (inactive) | GI50 (SK-OV-3): 15.9 µM (inactive) | GI50 (HCC 2998): 8 µM (inactive) | GI50 (SF-295): 10.8 µM (inactive) | GI50 (HCT-116): 1.86 µM (inactive) | GI50 (Malme-3M): 2.01 µM (inactive) | GI50 (HL-60): 1.1 µM (active) | GI50 (NCI/ADR-RES): 6.92 µM (inactive) | GI50 (K562): 1.61 µM (inactive) | GI50 (MDA-MB-435): 5.14 µM (inactive) | GI50 (SNB-19): 11.4 µM (inactive) | GI50 (A549): 14.7 µM (inactive) | GI50 (NCI-H23): 5.3 µM (inactive) | GI50 (MCF7): 2.35 µM (inactive) | GI50 (UACC-257): 2.13 µM (inactive) | GI50 (RXF 393): 1.95 µM (inactive) | GI50 (SN12C): 2.69 µM (inactive) | GI50 (OVCAR-4): 1.77 µM (inactive) | GI50 (MDA-MB-231): 2.7 µM (inactive) | GI50 (OVCAR-5): 6.27 µM (inactive) | GI50 (CCRF-CEM): 1.48 µM (inactive) | GI50 (SK-MEL-28): 2.33 µM (inactive) | GI50 (HCT-15): 1.84 µM | GI50 (SK-MEL-2): 2.25 µM (inactive) | GI50 (MDA-N): 2.57 µM (inactive) | GI50 (RPMI-8226): 1.47 µM (inactive) | GI50 (UO-31): 2.24 µM (inactive) | GI50 (SR): 1.82 µM (inactive) | GI50 (OVCAR-3): 1.74 µM (inactive) | GI50 (T47D): 2.57 µM (inactive) | GI50 (SK-MEL-5): 2.56 µM (inactive) | GI50 (TK-10): 1.79 µM (inactive) | GI50 (SF-268): 2.51 µM (inactive) | GI50 (A498): 7.46 µM (inactive) | GI50 (M14): 2.36 µM (inactive) | GI50 (786-0): 1.41 µM (inactive) | GI50 (KM12): 5.5 µM (inactive) | GI50 (HOP-92): 1.77 µM (inactive)

CN1CCC23c4c5ccc(Oc6nnnn6-c6ccccc6)c4OC2c2[nH]c4ccccc4c2CC3(O)C1C5 (configuration not stated)
GI50 (EKVX): 9.64 µM (inactive) | GI50 (BT-549): 16.5 µM (inactive) | GI50 (MOLT-4): 1.84 µM (inactive) | GI50 (SW-620): 2.44 µM (inactive) | GI50 (PC-3): 3.68 µM (inactive) | GI50 (HOP-62): 3.24 µM (inactive) | GI50 (NCI-H226): 10.8 µM (inactive) | GI50 (COLO 205): 2.29 µM (inactive) | GI50 (HT-29): 2.38 µM (inactive) | GI50 (SNB-75): 2.59 µM (inactive) | GI50 (NCI-H522): 2 µM (inactive) | GI50 (SF-539): 2.62 µM (inactive) | GI50 (UACC-62): 1.8 µM (inactive) | GI50 (ACHN): 1.74 µM (inactive) | GI50 (U-251): 1.85 µM (inactive) | GI50 (CAKI-1): 2.16 µM (inactive) | GI50 (DU-145): 7.16 µM (inactive) | GI50 (NCI-H460): 1.85 µM (inactive) | GI50 (Hs-578T): 9.25 µM (inactive) | GI50 (OVCAR-8): 2.86 µM (inactive) | GI50 (LOX IMVI): 1.89 µM (inactive) | GI50 (IGROV-1): 8.83 µM (inactive) | GI50 (SK-OV-3): 9.66 µM (inactive) | GI50 (HCC 2998): 1.81 µM (inactive) | GI50 (SF-295): 3.95 µM (inactive) | GI50 (HCT-116): 1.83 µM (inactive) | GI50 (Malme-3M): 1.67 µM (inactive) | GI50 (HL-60): 1.81 µM (inactive) | GI50 (NCI/ADR-RES): 5.37 µM (inactive) | GI50 (K562): 1.81 µM (inactive) | GI50 (MDA-MB-435): 4.01 µM (inactive) | GI50 (SNB-19): 7.66 µM (inactive) | GI50 (A549): 3.96 µM (inactive) | GI50 (NCI-H23): 16.3 µM (inactive) | GI50 (MCF7): 2.27 µM (inactive) | GI50 (UACC-257): 1.83 µM (inactive) | GI50 (RXF 393): 2.28 µM (inactive) | GI50 (SN12C): 2.75 µM (inactive) | GI50 (OVCAR-4): 2.54 µM (inactive) | GI50 (MDA-MB-231): 1.81 µM (inactive) | GI50 (OVCAR-5): 17.2 µM (inactive) | GI50 (CCRF-CEM): 2.08 µM (inactive) | GI50 (SK-MEL-28): 2.1 µM (inactive) | GI50 (HCT-15): 2.43 µM | GI50 (SK-MEL-2): 1.78 µM (inactive) | GI50 (MDA-N): 1.73 µM (inactive) | GI50 (RPMI-8226): 2.22 µM (inactive) | GI50 (UO-31): 1.75 µM (inactive) | GI50 (SR): 1.64 µM (inactive) | GI50 (OVCAR-3): 9.4 µM (inactive) | GI50 (T47D): 6.71 µM (inactive) | GI50 (SK-MEL-5): 2.29 µM (inactive) | GI50 (TK-10): 1.87 µM (inactive) | GI50 (SF-268): 6.89 µM (inactive) | GI50 (A498): 2.4 µM (inactive) | GI50 (M14): 1.85 µM (inactive) | GI50 (786-0): 1.77 µM (inactive) | GI50 (KM12): 2.82 µM (inactive) | GI50 (HOP-92): 2.07 µM (inactive)

Cc1cc2c(c(/C=N/c3ccc(N(C)C)cc3)c1)OC1(C=C2)Oc2ccccc2C(=O)N1C (configuration not stated)
GI50 (EKVX): 12.5 µM (inactive) | GI50 (BT-549): 8.63 µM (inactive) | GI50 (MOLT-4): 1.75 µM (inactive) | GI50 (SW-620): 17.3 µM (inactive) | GI50 (PC-3): > 35.5 µM (inactive) | GI50 (HOP-62): > 43 µM (inactive) | GI50 (NCI-H226): 23.9 µM (inactive) | GI50 (COLO 205): 17.5 µM (inactive) | GI50 (HT-29): 23.1 µM (inactive) | GI50 (SNB-75): 18 µM (inactive) | GI50 (NCI-H522): 14.4 µM (inactive) | GI50 (SF-539): 10 µM (inactive) | GI50 (UACC-62): 13.1 µM (inactive) | GI50 (ACHN): 12.2 µM (inactive) | GI50 (U-251): 15.1 µM (inactive) | GI50 (CAKI-1): 14.6 µM (inactive) | GI50 (DU-145): 14 µM (inactive) | GI50 (NCI-H460): 18.7 µM (inactive) | GI50 (Hs-578T): 21.5 µM (inactive) | GI50 (OVCAR-8): 14.2 µM (inactive) | GI50 (LOX IMVI): 13 µM (inactive) | GI50 (IGROV-1): 13.2 µM (inactive) | GI50 (SK-OV-3): 24.4 µM (inactive) | GI50 (HCC 2998): 16.6 µM (inactive) | GI50 (SF-295): 21.2 µM (inactive) | GI50 (HCT-116): 8.22 µM (inactive) | GI50 (Malme-3M): 17.7 µM (inactive) | GI50 (HL-60): 3.54 µM (inactive) | GI50 (NCI/ADR-RES): 16.5 µM (inactive) | GI50 (K562): 4.97 µM (inactive) | GI50 (MDA-MB-435): 13 µM (inactive) | GI50 (SNB-19): 7.96 µM (inactive) | GI50 (A549): 20.1 µM (inactive) | GI50 (NCI-H23): 12.5 µM (inactive) | GI50 (MCF7): 16.2 µM (inactive) | GI50 (UACC-257): 14.7 µM (inactive) | GI50 (RXF 393): 11.7 µM (inactive) | GI50 (SN12C): 15.7 µM (inactive) | GI50 (OVCAR-4): 12.6 µM (inactive) | GI50 (MDA-MB-231): 3.53 µM (inactive) | GI50 (OVCAR-5): 17.7 µM (inactive) | GI50 (CCRF-CEM): 2.71 µM (inactive) | GI50 (SK-MEL-28): 16 µM (inactive) | GI50 (HCT-15): 8.34 µM | GI50 (SK-MEL-2): > 39.2 µM (inactive) | GI50 (MDA-N): 12.5 µM (inactive) | GI50 (RPMI-8226): 5.96 µM (inactive) | GI50 (UO-31): 9.2 µM (inactive) | GI50 (SR): 54.2 µM (inactive) | GI50 (OVCAR-3): > 35.2 µM (inactive) | GI50 (T47D): 12.5 µM (inactive) | GI50 (SK-MEL-5): 13.9 µM (inactive) | GI50 (TK-10): 16.3 µM (inactive) | GI50 (SF-268): 17.1 µM (inactive) | GI50 (A498): 19.7 µM (inactive) | GI50 (M14): 14.5 µM (inactive) | GI50 (786-0): 14.2 µM (inactive) | GI50 (KM12): 15.5 µM (inactive) | GI50 (HOP-92): 16.4 µM (inactive)
